pIC50: −log10 of the molar value.

In the experiment the target is T1, human macrophage elastase (HME/hMMP-12) (Homo sapiens, UniProt P39900).
T1 construct: 0.5 nM HME; purchased R&D Systems 917-MP
T1 sequence (P39900 106-470): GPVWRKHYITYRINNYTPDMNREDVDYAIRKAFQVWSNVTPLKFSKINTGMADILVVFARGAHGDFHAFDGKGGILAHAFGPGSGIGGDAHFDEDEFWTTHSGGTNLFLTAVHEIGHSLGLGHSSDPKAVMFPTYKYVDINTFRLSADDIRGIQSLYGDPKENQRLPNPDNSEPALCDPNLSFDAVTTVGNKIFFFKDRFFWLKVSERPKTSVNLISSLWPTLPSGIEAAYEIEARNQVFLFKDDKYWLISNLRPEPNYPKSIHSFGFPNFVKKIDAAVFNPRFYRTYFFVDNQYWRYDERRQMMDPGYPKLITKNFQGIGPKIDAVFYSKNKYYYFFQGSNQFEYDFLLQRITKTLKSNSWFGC
The experiment in a line: In vitro HME inhibition test (standard or high-sensitivity). It counts as biochemical. The note with it: in some cases mean values. How it is done:
The potency of the compounds according to the invention with respect to HME (MMP-12) is determined in an in vitro inhibition test. The HME-mediated amidolytic cleavage of a suitable peptide substrate leads to an increase in fluorescent light therein. The signal intensity of the fluorescent light is directly proportional to the enzyme activity. The active concentration of a test compound at which half the enzyme is inhibited (50% signal intensity of the fluorescent light) is reported as the IC50 value.
In a 384 hole microtiter plate, in a total test volume of 41 the test buffer (0.1 M HEPES pH 7.4, 0.15 M NaCl, 0.03 M CaCl2, 0.004 mM ZnCl2, 0.02 M EDTA, 0.005% Brij®), the enzyme (0.5 nM HME; from R&D Systems, 917-MP, autocatalytic activation according to the manufacturer's instructions) and the intramolecularly quenched substrate [5 μM Mca-Pro-Leu-Gly-Leu-Glu-Glu-Ala-Dap(Dnp)-NH2; Bachem, M-2670] are incubated in the absence and presence of the test substance (as a solution in DMSO) at 37° C. for two hours. The fluorescence intensity of the test mixtures is measured (excitation […], emission 393 nm). The IC50 values are ascertained by plotting the fluorescent light intensity against the active ingredient concentration.
In this case, an enzyme concentration ten times lower is used (final concentration, for example, 0.05 nM) in order to achieve an elevated test sensitivity. The incubation period chosen for the test is correspondingly longer (for example 16 hours).
With `Cc1cccc(COc2ccc(C(=O)[C@@H]3CC[C@H](Cn4nnc5ccc(C)cc5c4=O)[C@H]3C(=O)O)cc2)c1` (single isomer, unassigned) [Example 99, (−)-(1RS,2RS,5SR)-2-{4-[(3-Methylbenzyl)oxy]benzoyl}-5-[(6-methyl-4-oxo-1,2,3-benzotriazin-3(4H)-yl)methyl]cyclopentanecarboxylic acid], the pIC50 (usually the negative decadic logarithm of the IC50, by convention in mol/L) was 6.68.
On to `O=C(O)[C@@H]1[C@@H](Cn2nnc3ccc(C(F)(F)F)cc3c2=O)CC[C@H]1C(=O)c1ccc(OCc2cccc(C(F)(F)F)c2)cc1` (single isomer, unassigned) [Example 20, (−)-(1RS,2SR,5RS)-2-{[4-Oxo-6-(trifluoromethyl)-1,2,3-benzotriazin-3(4H)-yl]methyl}-5-(4-{[3-(trifluoromethyl)benzyl]oxy}benzoyl)cyclopentanecarboxylic acid], for which the pIC50 is 8.34. This pIC50 lies 1.66 log units higher than the previous one.
Turning to `Cc1ccc2nnn(C[C@@H]3CC[C@H](C(=O)c4ccc(OCC5CCCC5)cc4)[C@H]3C(=O)O)c(=O)c2c1` (racemic) [Example 119, (+/−)-(1RS,2RS,5SR)-2-[4-(Cyclopentylmethoxy)benzoyl]-5-[(6-methyl-4-oxo-1,2,3-benzotriazin-3(4H)-yl)methyl]cyclopentanecarboxylic acid], the pIC50 was 10.32.
As to `Cc1ccc2nnn(C[C@@H]3CC[C@H](C(=O)c4ccc(OCC5CCCCC5)cc4)[C@H]3C(=O)O)c(=O)c2c1` (racemic) [Example 116, (+/−)-(1RS,2RS,5SR)-2-[4-(Cyclohexylmethoxy)benzoyl]-5-[(6-methyl-4-oxo-1,2,3-benzotriazin-3(4H)-yl)methyl]cyclopentanecarboxylic acid], the pIC50 is 10.03.
Molecule `Cc1ccc2nnn(C[C@H]3CC[C@@H](C(=O)c4ccc(OCc5cccc(OC(F)(F)F)c5)cc4)[C@@H]3C(=O)O)c(=O)c2c1` (single isomer, unassigned) [Example 111, (−)-(1RS,2SR,5RS)-2-[(6-Methyl-4-oxo-1,2,3-benzotriazin-3(4H)-yl)methyl]-5-(4-{[3-(trifluoromethoxy)benzyl]oxy}benzoyl)cyclopentanecarboxylic acid] gave a pIC50 of 6.85. This pIC50 is 3.18 log units lower than that of the molecule before.
As for `O=C(O)[C@H]1[C@H](Cn2nnc3ccc(C(F)(F)F)cc3c2=O)CC[C@@H]1C(=O)c1ccc(SCC2CCCCC2)cc1` (racemic) [Example 85], the figure is 9.66; as for `O=C(O)[C@H]1[C@H](Cn2nnc3ccc(C(F)(F)F)cc3c2=O)CC[C@@H]1C(=O)c1ccc(OCc2cccc(N3CCOC3=O)c2)cc1` (racemic) [Example 33, (+/−)-(1RS,2RS,5SR)-2-(4-{[3-(2-Oxo-1,3-oxazolidin-3-yl)benzyl]oxy}benzoyl)-5-{[4-oxo-6-(trifluoromethyl)-1,2,3-benzotriazin-3 (4H)-yl]methyl}cyclopentanecarboxylic acid], 9.89.
As for `CCCOc1ccc(C(=O)[C@@H]2CC[C@H](Cn3nnc4ccc(C(F)(F)F)cc4c3=O)[C@H]2C(=O)O)cc1` (single isomer, unassigned) [Example 70, (+)-(1RS,2SR,5RS)-2-{[4-Oxo-6-(trifluoromethyl)-1,2,3-benzotriazin-3(4H)-yl]methyl}-5-(4-propoxybenzoyl)cyclopentanecarboxylic acid], the figure is 10.51.
As for `CCCCCSc1ccc(C(=O)[C@@H]2CC[C@H](Cn3nnc4ccc(C(F)(F)F)cc4c3=O)[C@H]2C(=O)O)cc1` (single isomer, unassigned) [Example 89, (+)-(1RS,2SR,5RS)-2-{[4-Oxo-6-(trifluoromethyl)-1,2,3-benzotriazin-3(4H)-yl]methyl}-5-[4-(pentylsulphanyl)benzoyl]cyclopentanecarboxylic acid], the figure is 10.35; as for `CCCCCCOc1ccc(C(=O)[C@@H]2CC[C@H](Cn3nnc4ccc(C(F)(F)F)cc4c3=O)[C@H]2C(=O)O)cc1` (single isomer, unassigned) [Example 59, (−)-(1RS,2RS,5SR)-2-[4-(Hexyloxy)benzoyl]-5-{[4-oxo-6-(trifluoromethyl)-1,2,3-benzotriazin-3(4H)-yl]methyl}cyclopentanecarboxylic acid], 8.38.
Turning to `O=C(O)[C@H]1[C@H](Cn2nnc3ccc(C(F)(F)F)cc3c2=O)CC[C@@H]1C(=O)c1ccc(OCC2CC2)cc1` (racemic) [Example 49, (+/−)-(1RS,2RS,5SR)-2-[4-(Cyclopropylmethoxy)benzoyl]-5-{[4-oxo-6-(trifluoromethyl)-1,2,3-benzotriazin-3(4H)-yl]methyl}cyclopentanecarboxylic acid], the pIC50 is 9.85.
With `O=C(O)[C@@H]1[C@@H](Cn2nnc3ccc(C(F)(F)F)cc3c2=O)CC[C@H]1C(=O)c1ccc(SCc2ccccc2)cc1` (single isomer, unassigned) [Example 74, (−)-(1RS,2RS,5SR)-2-[4-(Benzylsulphanyl)benzoyl]-5-{[4-oxo-6-(trifluoromethyl)-1,2,3-benzotriazin-3(4H)-yl]methyl}cyclopentanecarboxylic acid] the figure was 6.80; with `COC(=O)Nc1cccc(COc2ccc(C(=O)[C@H]3CC[C@@H](Cn4nnc5ccc(C(F)(F)F)cc5c4=O)[C@@H]3C(=O)O)cc2)c1` (stereo in doubt) [Example 30, (+/−)-(1RS,2RS,5SR)-2-{4-({3-[(Methoxycarbonyl)amino]benzyl}oxy)benzoyl}-5-{[4-oxo-6-(trifluoromethyl)-1,2,3-benzotriazin-3(4H)-yl]methyl}cyclopentanecarboxylic acid], 10.43.
On to `O=C(O)[C@@H]1[C@@H](Cn2nnc3ccc(C(F)(F)F)cc3c2=O)CC[C@H]1C(=O)c1ccc(OCC2CCC2)cc1` (single isomer, unassigned) [Example 48, (−)-(1RS,2RS,5SR)-2-[4-(Cyclobutylmethoxy)benzoyl]-5-{[4-oxo-6-(trifluoromethyl)-1,2,3-benzotriazin-3(4H)-yl]methyl}cyclopentanecarboxylic acid], for which the pIC50 is 6.54.
As for `O=C(O)[C@@H]1[C@@H](Cn2nnc3ccc(C(F)(F)F)cc3c2=O)CC[C@H]1C(=O)c1ccc(OCCC2CCCCC2)cc1` (single isomer, unassigned) [Example 51, (−)-(1RS,2RS,5SR)-2-[4-(2-Cyclohexylethoxy)benzoyl]-5-{[4-oxo-6-(trifluoromethyl)-1,2,3-benzotriazin-3(4H)-yl]methyl}cyclopentanecarboxylic acid], the figure is 7.52.
As for `O=C(O)[C@H]1[C@H](Cn2nnc3ccc(C(F)(F)F)cc3c2=O)CC[C@@H]1C(=O)c1ccc(OCC2CCCC2)cc1` (racemic) [Example 43, (+/−)-(1RS,2RS,5SR)-2-[4-(Cyclopentylmethoxy)benzoyl]-5-{[4-oxo-6-(trifluoromethyl)-1,2,3-benzotriazin-3(4H)-yl]methyl}cyclopentanecarboxylic acid], the figure is 10.41.
As for `CCCCCCOc1ccc(C(=O)[C@H]2CC[C@@H](Cn3nnc4ccc(C(F)(F)F)cc4c3=O)[C@@H]2C(=O)O)cc1` (racemic) [Example 57, (+/−)-(1RS,2RS,5SR)-2-[4-(Hexyloxy)benzoyl]-5-{[4-oxo-6-(trifluoromethyl)-1,2,3-benzotriazin-3(4H)-yl]methyl}cyclopentanecarboxylic acid], the figure is 10.55.
Molecule `CCCCCCOc1ccc(C(=O)[C@H]2CC[C@@H](Cn3nnc4ccc(C)cc4c3=O)[C@@H]2C(=O)O)cc1` (racemic) [Example 120, (+/−)-(1RS,2RS,5SR)-2-[4-(Hexyloxy)benzoyl]-5-[(6-methyl-4-oxo-1,2,3-benzotriazin-3(4H)-yl)methyl]cyclopentanecarboxylic acid] had a pIC50 of 10.00.
With `CCCCOc1ccc(C(=O)[C@H]2CC[C@@H](Cn3nnc4ccccc4c3=O)[C@@H]2C(=O)O)cc1` (racemic) [Example 10, (+/−)-(1RS,2RS,5SR)-2-(4-Butoxybenzoyl)-5-[(4-oxo-1,2,3-benzotriazin-3 (4H)-yl)methyl]cyclopentanecarboxylic acid] the figure was 9.44; with `O=C(O)[C@H]1[C@H](Cn2nnc3ccc(C(F)(F)F)cc3c2=O)CC[C@@H]1C(=O)c1ccc(OCc2cccc(Cl)c2)cc1` (racemic) [Example 21, (+/−)-(1RS,2RS,5SR)-2-{4-[(3-Chlorobenzyl)oxy]benzoyl}-5-{[4-oxo-6-(trifluoromethyl)-1,2,3-benzotriazin-3(4H)-yl]methyl}cyclopentanecarboxylic acid], 10.35.
The molecule `O=C(O)[C@H]1[C@H](Cn2nnc3ccc(C(F)(F)F)cc3c2=O)CC[C@@H]1C(=O)c1ccc(OCCc2ccccc2)cc1` (racemic) [Example 36, (+/−)-(1RS,2SR,5RS)-2-{[4-Oxo-6-(trifluoromethyl)-1,2,3-benzotriazin-3(4H)-yl]methyl}-5-[4-(2-phenylethoxy)benzoyl]cyclopentanecarboxylic acid] had a pIC50 of 9.89.
In the case of `Cc1ccc2nnn(C[C@H]3CC[C@@H](C(=O)c4ccc(OCc5ccccc5)cc4)[C@@H]3C(=O)O)c(=O)c2c1` (single isomer, unassigned) [Example 93, (−)-(1RS,2RS,5SR)-2-[4-(Benzyloxy)benzoyl]-5-[(6-methyl-4-oxo-1,2,3-benzotriazin-3(4H)-yl)methyl]cyclopentanecarboxylic acid], the negative-log IC50 (pIC50) was 6.72.

Source of the values: patent publication US20170022171A1, “2,5-DISUBSTITUTED CYCLOPENTANECARBOXYLIC ACIDS AND THEIR USE” (Bayer Pharma Aktiengesellschaft, priority 2014, published 2017).
